# Data taken from patent publication US9242981B2, “Fused pyrazole derivatives as novel ERK inhibitors” (Merck Sharp & Dohme Corp., priority 2010, dated 2016).
# Target: Mouse ERK2 protein (Mus musculus (Mouse), UniProt P63085)
# Test: Coupled MEK1/ERK2 IMAP assay or Active ERK2 IMAP assay
# Assay type: biochemical
# Conditions: Table 1, class symbols, 30 μM ATP
# Procedure: 14 μl of kinase buffer (10 mM Tris.HCl pH 7.2, 10 mM MgCl2, 0.01% Tween-20, 1 mM DTT) containing 0.4 ng unphosphorylated Mouse ERK2 protein is added to each well of a black 384-well assay plate. […] DMSO concentration during initial incubation is 6.7%. […] DMSO concentration during ERK activation was 4%. After one hour, reactions are terminated by addition of 60 μl IMAP detections beads in binding buffer (Molecular Devices). Binding is allowed to equilibrate for 30 minutes before reading the plate on an LJL Analyst Fluorescence Polarization plate reader.
# Activated ERK2 activity was also determined in the IMAP assay format using the procedure outlined above. […] Reactions proceeded for 30 minutes before termination by addition of […] IMAP detection beads in binding buffer. Plates were read as above after 30 minute binding equilibration.
# Mouse ERK2 protein, sequence (P63085 whole entry): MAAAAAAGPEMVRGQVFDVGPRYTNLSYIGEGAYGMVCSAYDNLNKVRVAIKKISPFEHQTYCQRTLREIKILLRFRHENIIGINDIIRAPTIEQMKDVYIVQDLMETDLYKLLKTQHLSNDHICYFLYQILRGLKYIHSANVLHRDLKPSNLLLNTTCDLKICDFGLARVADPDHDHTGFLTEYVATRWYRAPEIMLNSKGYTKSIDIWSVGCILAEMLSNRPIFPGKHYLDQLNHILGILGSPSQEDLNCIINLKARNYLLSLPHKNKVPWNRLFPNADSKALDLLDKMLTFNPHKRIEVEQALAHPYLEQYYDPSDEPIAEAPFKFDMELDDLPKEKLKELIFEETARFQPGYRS
row,SMILES,IC50 [nM]
1,"O=C(N[C@@H]1CCCN(Cc2ccsc2)C1)N1CCc2[nH]nc(-c3ccncc3)c2C1 [Compound 56, 1,4,6,7-tetrahydro-3-(4-pyridinyl)-N-[1-(3-thienylmethyl)-3(R)-piperidinyl]-5H-pyrazolo[4,3-c]pyridine-5-carboxamide]",< 20
2,"Cn1cnc(CN2CCC[C@@H](NC(=O)N3CCc4[nH]nc(-c5ccncc5)c4C3)C2)c1 [Compound 64, 1,4,6,7-tetrahydro-N-[1-[(1-methyl-1H-imidazoL-4-yl)methyl]-3(R)-piperidinyl]-3-(4-pyridinyl)-5H-pyrazolo[4,3-c]pyridine-5-carboxamide]",101 to 1000
3,"O=C(N[C@@H]1CCCN(Cc2ccccc2C(F)(F)F)C1)N1CCc2[nH]nc(-c3ccncc3)c2C1 [Compound 67, 1,4,6,7-tetrahydro-3-(4-pyridinyl)-N-[1-[[2-(trifluoromethyl)phenyl]meth-yl]-3(R)-piperidinyl]-5H-pyrazolo[4,3-c]pyridine-5-carboxamide]",21 to 100
4,"O=C(N[C@@H]1CCCN(Cc2c(F)cccc2C(F)(F)F)C1)N1CCc2[nH]nc(-c3ccncc3)c2C1 [Compound 68, N-[1-[[2-fluoro-6-(trifluoromethyl)phenyl]meth-yl]-3(R)-piperidinyl]-1,4,6,7-tetrahydro-3-(4-pyridinyl)-5H-pyrazolo[4,3-c]pyridine-5-carboxamide]",21 to 100
5,"COc1ccccc1CN1CCC[C@@H](NC(=O)N2CCc3[nH]nc(-c4ccncc4)c3C2)C1 [Compound 70, 1,4,6,7-tetrahydro-N-[1-[(2-methoxyphenyl)methyl]-3(R)-piperidinyl]-3-(4-pyridinyl)-5H-pyrazolo[4,3-c]pyridine-5-carboxamide]",21 to 100
6,COc1cccc(OC)c1CN1CCC[C@@H](NC(=O)N2CCc3[nH]nc(-c4ccncc4)c3C2)C1 [Compound 73],101 to 1000
7,"O=C(N[C@@H]1CCCN(Cc2ccccc2N2CCOCC2)C1)N1CCc2[nH]nc(-c3ccncc3)c2C1 [Compound 74, 1,4,6,7-tetrahydro-N-[1-[[2-(4-morpholinyl)phenyl]-methyl]-3(R)-piperidinyl]-3-(4-pyridinyl)-5H-pyrazolo[4,3-c]pyridine-5-carboxamide]",101 to 1000
8,"COC(=O)C1CC(NC(=O)N2CCc3[nH]nc(-c4ccnc(C)c4)c3C2)CN(Cc2c(F)cccc2F)C1 (stereo not shown) [Compound 82, methyl 1-[(2,6-difluorophenyl)methyl]-5-[[[1,4,6,7-tetrahydro-3-(2-methyl-4-pyridinyl)-5H-pyrazolo[4,3-c]pyridin-5-yl]carbonyl]amino]-3-piperidinecarboxylate]",101 to 1000
9,"Cc1cc(-c2n[nH]c3c2CN(C(=O)NC2CC(CO)CN(Cc4c(F)cccc4F)C2)CC3)ccn1 (stereo not shown) [Compound 86, N-[1-[(2,6-difluorophenyl)-methyl]-5-(hydroxymethyl)-3-piperidinyl]-1,4,6,7-tetrahydro-3-(2-methyl-4-pyridinyl)-5H-pyrazolo[4,3-c]pyridine-5-carboxamide]",21 to 100
10,"Cc1cc(-c2n[nH]c3c2CN(C(=O)NC2(C)CCCN(Cc4c(F)cccc4F)C2)CC3)ccn1 (stereo not shown) [Compound 87, N-[1-[(2,6-difluorophenyl)-methyl]-3-methyl-3-piperidinyl]-1,4,6,7-tetrahydro-3-(2-methyl-4-pyridinyl)-5H-pyrazolo[4,3-c]pyridine-5-carboxamide]",101 to 1000
11,"Cc1cc(-c2n[nH]c3c2CN(C(=O)NC2(C)CCCN(Cc4csc5ccccc45)C2)CC3)ccn1 (stereo not shown) [Compound 88, N-[1-(benzo[b]thien-3-ylmethyl)-3-methyl-3-piperidinyl]-1,4,6,7-tetrahydro-3-(2-methyl-4-pyridinyl)-5H-pyrazolo[4,3-c]pyridine-5-carboxamide]",101 to 1000
12,"Cc1cc(-c2n[nH]c3c2CN(C(=O)NC2CC(C)CN(Cc4c(F)cccc4Cl)C2)CC3)ccn1 (stereo not shown) [Compound 91, N-[1-[(2-chloro-6-fluorophenyl)methyl]-5-methyl-3-piperidinyl)-1,4,6,7-tetrahydro-3-(2-methyl-4-pyridinyl)-5H-pyrazolo[4,3-c]pyridine-5-carboxamide]",< 20
13,"CCC1(NC(=O)N2CCc3[nH]nc(-c4ccnc(C)c4)c3C2)CCCN(Cc2c(F)cccc2F)C1 (stereo not shown) [Compound 92, N-[1-[(2,6-difluorophenyl)-methyl]-3-ethyl-3-piperidinyl]-1,4,6,7-tetrahydro-3-(2-methyl-4-pyridinyl)-5H-pyrazolo[4,3-c]pyridine-5-carboxamide]",101 to 1000
14,"CCC1(NC(=O)N2CCc3[nH]nc(-c4ccnc(C)c4)c3C2)CCCN(Cc2csc3ccccc23)C1 (stereo not shown) [Compound 93, N-[1-(benzo[b]thien-3-ylmethyl)-3-ethyl-3-piperidinyl]-1,4,6,7-tetrahydro-3-(2-methyl-4-pyridinyl)-5H-pyrazolo[4,3-c]pyridine-5-carboxamide]",101 to 1000
15,"Cc1cc(-c2n[nH]c3c2CN(C(=O)NC2CC(C)CN(Cc4c(C)cccc4C)C2)CC3)ccn1 (stereo not shown) [Compound 94, N-[1-[(2,6-dimethylphenyl)-methyl]-5-methyl-3-piperidinyl]-1,4,6,7-tetrahydro-3-(2-methyl-4-pyridinyl)-5H-pyrazolo[4,3-c]pyridine-5-carboxamide]",21 to 100
16,"Cc1cc(-c2n[nH]c3c2CN(C(=O)NC2CC(C)CN(Cc4c(F)cccc4C(F)(F)F)C2)CC3)ccn1 (stereo not shown) [Compound 95, N-[1-[[2-fluoro-6-(trifluoro-methyl)phenyl]methyl]-5-methyl-3-piperidinyl]-1,4,6,7-tetrahydro-3-(2-methyl-4-pyridinyl)-5H-pyrazolo[4,3-c]pyridine-5-carboxamide]",101 to 1000

# Further lines, results first:
row,IC50 [nM],SMILES
1,101 to 1000,"O=C(N[C@@H]1CCCN(Cc2ncc[nH]2)C1)N1CCc2[nH]nc(-c3ccncc3)c2C1 [Compound 63, 1,4,6,7-tetrahydro-N-[1-(1H-imidazoL-2-ylmethyl)-3(R)-piperidinyl]-3-(4-pyridinyl)-5H-pyrazolo[4,3-c]pyridine-5-carboxamide]"
2,101 to 1000,"Cn1ccc(CN2CCC[C@@H](NC(=O)N3CCc4[nH]nc(-c5ccncc5)c4C3)C2)n1 [Compound 65, 1,4,6,7-tetrahydro-N-[1-[(1-methyl-1H-pyrazol-3-yl)methyl]-3(R)-piperidinyl]-3-(4-pyridinyl)-5H-pyrazolo[4,3-c]pyridine-5-carboxamide]"
3,< 20,"O=C(N[C@@H]1CCCN(Cc2c(F)cccc2Cl)C1)N1CCc2[nH]nc(-c3ccncc3)c2C1 [Compound 66, N-[1-[(2-chloro-6-fluorophenyl)methyl]-3(R)-piperidinyl]-1,4,6,7-tetrahydro-3-(4-pyridinyl)-5H-pyrazolo[4,3-c]pyridine-5-carboxamide]"
4,21 to 100,"COC(=O)c1ccccc1CN1CCC[C@@H](NC(=O)N2CCc3[nH]nc(-c4ccncc4)c3C2)C1 [Compound 72, methyl 2-[[3(R)-[[[1,4,6,7-tetrahydro-3-(4-pyridinyl)-5H-pyrazolo[4,3-c]pyridin-5-yl]carbonyl]amino]-1-piperidinyl]methyl]benzoate]"
5,21 to 100,"Cc1cc(-c2n[nH]c3c2CN(C(=O)N[C@@H]2CCCN(Cc4c(F)cccc4F)C2)CC3)ccn1 [Compound 81, N-[1-[(2,6-difluorophenyl)-methyl]-3(R)-piperidinyl]-1,4,6,7-tetrahydro-3-(2-methyl-4-pyridinyl)-5H-pyrazolo[4,3-c]pyridine-5-carboxamide]"
6,101 to 1000,"Cc1cc(-c2n[nH]c3c2CN(C(=O)NC2CC(C(=O)O)CN(Cc4c(F)cccc4F)C2)CC3)ccn1 (stereo not shown) [Compound 83, 1-[(2,6-difluorophenyl)-methyl]-5-[[[1,4,6,7-tetrahydro-3-(2-methyl-4-pyridinyl)-5H-pyrazolo[4,3-c]pyridin-5-yl]carbonyl]amino]-3-piperidinecarboxylic acid]"
7,< 20,"Cc1cc(-c2n[nH]c3c2CN(C(=O)NC2CCCN(Cc4c(F)cccc4Cl)C2)CC3)ccn1 (stereo not shown) [Compound 85, N-[1-[(2-chloro-6-fluorophenyl)methyl]-3-piperidinyl]-1,4,6,7-tetrahydro-3-(2-methyl-4-pyridinyl)-5H-pyrazolo[4,3-c]pyridine-5-carboxamide]"
8,21 to 100,"Cc1cc(-c2n[nH]c3c2CN(C(=O)NC2CC(C)CN(Cc4c(F)cccc4F)C2)CC3)ccn1 (stereo not shown) [Compound 89, N-[1-[(2,6-difluorophenyl)-methyl]-5-methyl-3-piperidinyl]-1,4,6,7-tetrahydro-3-(2-methyl-4-pyridinyl)-5H-pyrazolo[4,3-c]pyridine-5-carboxamide]"
9,21 to 100,"COc1cccc(F)c1CN1CC(C)CC(NC(=O)N2CCc3[nH]nc(-c4ccnc(C)c4)c3C2)C1 (stereo not shown) [Compound 90, N-[1-[(2-fluoro-6-methoxyphenyl)methyl]-5-methyl-3-piperidinyl]-1,4,6,7-tetrahydro-3-(2-methyl-4-pyridinyl)-5H-pyrazolo[4,3-c]pyridine-5-carboxamide]"
10,101 to 1000,"Cc1cc(-c2n[nH]c3c2CN(C(=O)NC2CC(C)CN(Cc4cnc5ccccc5c4)C2)CC3)ccn1 (stereo not shown) [Compound 96, 1,4,6,7-tetrahydro-3-(2-methyl-4-pyridinyl)-N-[5-methyl-1-(3-quinolinylmethyl)-3-piperidinyl]-5H-pyrazolo[4,3-c]pyridine-5-carboxamide]"
11,21 to 100,"COc1ccc2ccccc2c1CN1CCC[C@@H](NC(=O)N2CCc3[nH]nc(-c4ccnc(C)c4)c3C2)C1 [Compound 97, 1,4,6,7-tetrahydro-N-[1-[(2-Methoxy-1-naphthalenyl)-methyl]-3(R)-piperidinyl]-3-(2-methyl-4-pyridinyl)-5H-pyrazolo[4,3-c]pyridine-5-carboxamide]"
12,101 to 1000,Cc1cc(-c2n[nH]c3c2CN(C(=O)N[C@@H]2CCCN(Cc4ccnc5ccccc45)C2)CC3)ccn1 [Compound 98]
